The supplement of paper PMC10307832

Assays:
Test in all cases: relative viability (nuclei count vs DMSO), 5 days (fraction); higher = more cells survive
Cediranib + Foretinib = compound: COc1cc2c(Oc3ccc4[nH]c(C)cc4c3F)ncnc2cc1OCCCN1CCCC1 [Cediranib] + COc1cc2c(Oc3ccc(NC(=O)C4(C(=O)Nc5ccc(F)cc5)CC4)cc3F)ccnc2cc1OCCCN1CCOCC1 [Foretinib] (partner 0.25 µM)
Summary of the method: (§1)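 Cells from lung cancer lines were seeded into 1536-well plates and, one day later, dosed by pin tool. Treatments were either a single drug or a fixed dose of an anchor drug with five library-drug doses (not always all listed) in √10 steps. After 5 days, nuclei were stained in a one-step fixation (final 0.05% Triton X-100, 1% formaldehyde, 1 ug/ml Hoechst) and counted on 4× images, and relative viability is the treated-to-vehicle nuclei ratio, as the median of duplicate plates.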

[1] = compound: O=C(C[C@H]1NCCC[C@@H]1O)Cn1cnc2cc(Br)c(Cl)cc2c1=O (racemic) [Halofuginone] + CC(=O)Nc1cccc(-n2c(=O)n(C3CC3)c(=O)c3c(Nc4ccc(I)cc4F)n(C)c(=O)c(C)c32)c1 [Trametinib] (partner 0.02 µM)
Summary of the method: as §1

Halofuginone + Lapatinib = compound: O=C(C[C@H]1NCCC[C@@H]1O)Cn1cnc2cc(Br)c(Cl)cc2c1=O (racemic) [Halofuginone] + CS(=O)(=O)CCNCc1ccc(-c2ccc3ncnc(Nc4ccc(OCc5cccc(F)c5)c(Cl)c4)c3c2)o1 [Lapatinib] (partner 2 µM)
Summary of the method: as §1

[2] = compound: O=C(C[C@H]1NCCC[C@@H]1O)Cn1cnc2cc(Br)c(Cl)cc2c1=O (racemic) [Halofuginone] + CCNC(=O)c1noc(-c2cc(C(C)C)c(O)cc2O)c1-c1ccc(CN2CCOCC2)cc1 [Luminespib] (partner 0.01 µM)
Summary of the method: as §1

Row | Cell Line | relative viability (Cediranib + Foretinib; first compound 0.04 µM) | relative viability (Cediranib + Foretinib; first compound 0.1265 µM) | relative viability (Cediranib + Foretinib; first compound 0.4 µM) | relative viability (Cediranib + Foretinib; first compound 1.265 µM) | relative viability (Cediranib + Foretinib; first compound 4 µM) | relative viability ([1]; first compound 0.001 µM) | relative viability ([1]; first compound 0.003162 µM) | relative viability ([1]; first compound 0.01 µM) | relative viability ([1]; first compound 0.03162 µM) | relative viability ([1]; first compound 0.1 µM) | relative viability (Halofuginone + Lapatinib; first compound 0.001 µM) | relative viability (Halofuginone + Lapatinib; first compound 0.003162 µM) | relative viability (Halofuginone + Lapatinib; first compound 0.01 µM) | relative viability (Halofuginone + Lapatinib; first compound 0.03162 µM) | relative viability (Halofuginone + Lapatinib; first compound 0.1 µM) | relative viability ([2]; first compound 0.001 µM) | relative viability ([2]; first compound 0.003162 µM) | relative viability ([2]; first compound 0.01 µM) | relative viability ([2]; first compound 0.03162 µM) | relative viability ([2]; first compound 0.1 µM)
1 | LU99A | 0.793 | 0.728 | 0.8 | 0.769 | 0.832 | 0.554 | 0.598 | 0.545 | 0.589 | 0.536 | 0.985 | 0.965 | 0.892 | 0.934 | 0.607 | 0.244 | 0.281 | 0.238 | 0.239 | 0.174
2 | LXF-289 | 1.02 | 0.822 | 0.912 | 0.982 | 0.936 | 0.688 | 0.717 | 0.66 | 0.707 | 0.676 | 0.891 | 0.893 | 0.847 | 0.874 | 0.895 | 0.664 | 0.701 | 0.699 | 0.763 | 0.317
3 | NCI-H441 | 1.09 | – | 0.87 | 0.794 | 1.14 | 0.48 | 0.428 | 0.493 | 0.471 | 0.233 | – | – | – | – | – | 0.352 | 0.292 | 0.487 | 0.306 | 0.213
4 | NCI-H522 | – | – | – | – | – | 0.734 | 0.753 | 0.791 | 0.777 | 0.633 | – | – | – | – | – | 1.14 | 1.81 | 1.12 | 1.28 | 1.09
5 | NCI-H1299 | 1.1 | 1.05 | 1.13 | 1.1 | 1.15 | – | – | – | – | – | 0.995 | 1 | 0.916 | 0.941 | 0.65 | – | – | – | – | –
6 | NCI-H1563 | 0.976 | 1.09 | 0.908 | 0.958 | 0.936 | – | – | – | – | – | 0.757 | 0.853 | 0.879 | 0.627 | 0.506 | 0.487 | 0.493 | 0.547 | 0.534 | 0.467
7 | NCI-H1623 | 0.974 | 0.59 | 0.793 | 0.861 | 0.805 | – | – | – | – | – | – | – | – | – | – | 0.622 | 0.465 | 0.461 | 0.622 | 0.485
8 | NCI-H1648 | – | – | – | – | – | 0.46 | 0.449 | 0.582 | 0.495 | 0.497 | – | – | – | – | – | – | – | – | – | –
9 | NCI-H1703 | 0.468 | 0.37 | 0.247 | 0.33 | 0.337 | – | – | – | – | – | 1.15 | 1.28 | 0.95 | 0.792 | 0.427 | – | – | – | – | –
10 | NCI-H1792 | – | – | – | – | – | 0.402 | 0.469 | 0.51 | 0.522 | 0.18 | 0.897 | 0.857 | 0.896 | 0.831 | 0.994 | 0.498 | 0.402 | 0.414 | 0.452 | 0.296
11 | NCI-H2342 | 1.14 | 1.07 | 0.927 | 1.06 | 1.12 | 0.816 | 0.832 | 0.972 | 0.85 | 0.823 | – | – | – | – | – | 0.817 | 0.719 | 0.699 | 0.731 | 0.64
12 | SW 900 | 0.535 | 0.877 | 0.878 | 0.98 | 1.18 | 0.871 | 0.941 | – | 1.03 | 0.534 | – | – | – | – | – | 0.205 | 0.187 | 0.144 | 0.181 | 0.154
